Test results taken from paper PMC7708037, “Targeting OGG1 arrests cancer cell proliferation by inducing replication stress” (Nucleic Acids Research, 2020).

Tests used:
[1] = test system: HEK293T and HEK293T(KO) cells; experiment: Colony area of HEK293T vs HEK293T(KO); format: cell-based, human; details: 8 days exposure
Source text: 250 HEK293T or HEK293T (KO) cells were counted and seeded in 6-well plates for 8 days in the presence or absence of TH5487 at indicated concentrations. Colonies were directly scanned after removing media and drying colonies. Area of HEK293T or HEK293T(KO) colonies was digitally colour contrasted and then analysed using ImageJ. […]
untreated parental HEK293T. Data are average ±SEM of 4 technical replicates from 2 independent experiments. F. Comparative analysis of the colony area (pixels) for HEK293T or HEK293T(KO) cells exposed for eight days to TH5487 or DMSO. Data are average ±SEM of 4 technical replicates from 2 independent experiments. Statistical significance was determined using Mann Witney test (**, P<0.01, ***, P<0.001 and ****, P<0.0001 , ns, non-significant).
Supplementary Fig. S6: 8 -oxodG levels and cell cycle distribution. A. 8-oxodG accumulation in A3 knockdown cells. The indicated shNT cells were treated with 250 ng/ml doxycycline for 0, 96, or 144 h, and the amount of genomic 8-oxodG was quantified with LC -MS/MS. […] Cells were treated with 10 µM TH5487 or an equivalent volume DMSO for the indicated times, and the cell cycle distribution was determined by flow cytometry. […] A3 shNT (grey), sh2 (blue), and sh3 (red), were treated with 250 ng/ml doxycycline for 48 –120 h, and the cell cycle distribution was determined with flow cytometry. […]

[2] = parameters: method as in PMID 30442810; details: cited from earlier work
[3] = test system: CD3+ T-cells; experiment: CD3 flow cytometry assay (T-cell survival); format: cell-based; parameters: Survival of CD3+ T-cells (flow cytometry): dose or concentration left out as unconfirmed
Description: The experiment was performed on blood cells from 4 different healthy individuals, with three replicates each. Human peripheral blood mononuclear cells were isolated from fresh buffy coats obtained from healthy donors via the Karolinska Hospital, Stockholm, Sweden. For separation, Ficoll-Paque PLUS density medium (17144003, GE Healthcare) and SepMate separation tubes (85450, StemCell) were used, according to manufacturer's instructions. Briefly, buffy coat diluted 1:1 with PBS and layered on 15 ml of Ficoll-Paque PLUS in the SepMate tubes was spun down for 10 min at […]. The upper layer of the tube content was then poured into new falcon tubes and washed twice with PBS.
Cells were seeded out in round bottom 96-well plates (83.3925.500, Sarstedt) in RPMI Medium 1640 containing GlutaMAX™ (61870-010, ThermoFisher) supplemented with 10% human AB+ male heat inactivated clotted whole blood serum (H5667, Sigma-Aldrich) and 100 U/ml penicillin/streptomycin (15140122, Gibco). […] Only viable cells were counted, using a TC20™ automated cell counter (Bio-Rad) and Trypan blue (1450021, Bio-Rad). […]
10 000 events from an FSC-SSC gate set on the typical living lymphocyte population were collected and the data was compensated and analyzed using FlowJo 10.5.3. […] The number of CD3 positive, viable events was quantified and then divided by the number of Precision Count Beads™ collected per tube. […]

O=C(Nc1ccc(I)cc1)N1CCC(n2c(=O)[nH]c3c(Br)cccc32)CC1 [TH5487]
Colony area, HEK293T compared to HEK293T (KO) [1]: significantly reduced | Tolerability in mice [2]: well tolerated | Survival of CD3+ T-cells (flow cytometry) ([3]; Dynabeads-activated, 6 days): well tolerated | Tolerance by primary T-cells ([3]; the same dose (10 μM), healthy donors): well tolerated
